Laboratory results as given in patent US20130210752A1, “USING A NOVEL HIGH-THROUGHPUT YEAST CELL-BASED SCREENING PLATFORM TO IDENTIFY HMG-COA REDUCTASE INHIBITORS FROM NATURAL PRODUCTS AND THE USES OF SUCH INHIBITORS THEREOF” (HONG KONG BAPTIST UNIVERSITY, priority 2012, published 2013).

What was measured:
[1] = test system: yeast cells lacking HMG1 and HMG2 with HMG1 overexpression plasmid (HMG-CoAR); assay: Yeast HMG-CoAR screening assay (yeast cell growth, OD660, with or without mevalonate); format: cell-based, Saccharomyces cerevisiae; settings: for restoration of growth / reduction of inhibitory effect in the presence of mevalonate (compounds from Fraction 7): 300 μg/ml (7E1: 150 μg/ml), with mevalonate; for growth inhibition in the yeast cells: without mevalonate
Description: The present invention provides a screening method to identify potential HMG-CoAR inhibitors. The present method comprises providing a yeast strain which lacks HMG1 and HMG2 genes but containing a HMG1 overexpression plasmid, contacting said yeast strain with a test material. If the test material can inhibit the HMG1 activity or expression, the yeast cells will die. In order to validate the death of yeast cells is due to inhibition of HMG1 by the test material, the present invention also includes adding mevalonate compound, which is a downstream product of the HMG-CoAR. HMG-CoAR inhibitory activity of the test material is confirmed if the cell viability of the yeast strain is unaffected by the test material in the presence of mevalonate.
Saccharomyces cerevisiae (MATa ade2-101 his3-200 hmg1::LYS2 hmg2:his3 lys2-80 met TRP1 ura3-52 with overexpression of yeast HMG1 containing plasmid) were used in the screening assay. Cells were grown at 30° C. in YEPD, consisting of 10 g/L yeast extract, 20 g/L Bacto-peptone and 20 g/L dextrose.
Yeast cells were grown overnight in YEPD medium to ^˜7.0 OD660 at 30° C. Cells were then subculture to a fresh YEPD medium with starting ^˜0.1 starting OD660 and grew for another 8 hours to ^˜1.2 OD660. The assay was performed in a 96-well plate. 2.7×10^4 cells, tested drugs/chemicals and/or mevalonate were added to each well in a final volume of 100 μl. All experiments were performed in triplicate. Cells were then grown for 16 hours at 30° C. and the inhibitory effect of HMG-CoAR determined by measuring the cell density OD660 of each well by a micro-plate reader. Statin was used as a positive control and mevalonate supplement was used to validate the inhibitory effect of tested compounds on HMG-CoAR.

HMG-CoAR = molecular target: T1, HMG-CoAR (Homo sapiens, UniProt P04035); assay: In vitro HMG-CoAR activity assay (commercial kit, Sigma; NADPH oxidation at 340 nm); format: biochemical; settings: 60 μg/ml
T1 construct: the oxidation of NADPH by the catalytic subunit of HMGR in the presence of the substrate of HMG-CoA; purchased Sigma, USA
T1 sequence (P04035 426-888 limits assumed): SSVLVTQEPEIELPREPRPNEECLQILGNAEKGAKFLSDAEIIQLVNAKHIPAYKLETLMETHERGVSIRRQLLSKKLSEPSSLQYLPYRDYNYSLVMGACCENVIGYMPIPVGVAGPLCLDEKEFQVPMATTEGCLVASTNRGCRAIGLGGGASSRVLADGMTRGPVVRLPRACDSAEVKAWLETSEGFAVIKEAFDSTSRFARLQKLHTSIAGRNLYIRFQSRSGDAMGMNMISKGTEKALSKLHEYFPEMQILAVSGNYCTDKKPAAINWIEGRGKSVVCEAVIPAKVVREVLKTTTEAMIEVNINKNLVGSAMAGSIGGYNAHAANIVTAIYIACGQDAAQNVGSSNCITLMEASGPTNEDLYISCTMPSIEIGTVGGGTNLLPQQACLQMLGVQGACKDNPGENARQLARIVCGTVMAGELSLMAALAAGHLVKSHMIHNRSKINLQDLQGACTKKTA
Procedure: Commercial HMG-CoAR activity assay kit (Sigma, USA) is used in this experiment. The HMG-CoAR activity assay is based on the spectrophotometric measurement of the decrease in absorbance at 340 nm, which represents the oxidation of NADPH by the catalytic subunit of HMGR in the presence of the substrate of HMG-CoA. Pravastatin (Positive control), 7E1 or 7E2 are tested in this assay.
The HMG-CoAR activity was determined by the commercially available in vitro assay kit (Sigma, USA). The protocol of the assay was performed as described in the manufacture's manual. The HMG-CoAR activity assay is based on the spectrophotometric measurement of the decrease in absorbance at 340 nm, which represents the oxidation of NADPH by the catalytic subunit of HMGR in the presence of the substrate of HMG-CoA.
To validate the inhibitory effect of HMG-CoAR activity of compounds 7E1 and 7E2, in vitro HMG-CoAR activity is performed. Commercial HMG-CoAR activity assay kit (Sigma, USA) is used. The HMG-CoAR activity assay is based on the spectrophotometric measurement of the decrease in absorbance at 340 nm, which represents the oxidation of NADPH by the catalytic subunit of HMGR in the presence of the substrate of HMG-CoA. HMG-CoAR inhibitory effect of Pravastatin (Positive control), 7E1 or 7E2 are tested.

| Compound | restoration of growth / reduction of inhibitory effect in the presence of mevalonate (compounds from Fraction 7) [1] | growth inhibition in the yeast cells ([1]; 300 μg/ml) [%] | inhibition of HMG-CoAR activity in vitro (HMG-CoAR) | growth inhibition in the yeast cells ([1]; 150 μg/ml) [%] |
| --- | --- | --- | --- | --- |
| CC(C)=CCC[C@](C)(O[C@@H]1O[C@H](CO[C@@H]2OC[C@@H](O)[C@H](O)[C@H]2O)[C@@H](O)[C@H](O)[C@H]1O)[C@H]1CC[C@]2(C)[C@@H]1[C@H](O)C[C@@H]1[C@@]3(C)CC[C@H](O[C@@H]4O[C@H](CO)[C@@H](O)[C@H](O)[C@H]4O)C(C)(C)[C@@H]3CC[C@]12C [Compound 7E2, gypenoside IX] | significant reduction of inhibitory effects | 80 | can inhibit the HMG-CoAR activity | – |
| gypenoside XLV-Ed [Compound 7E1] | significant reduction of inhibitory effects | – | can inhibit the HMG-CoAR activity | 65 |
